Assay results published in patent publication US20210238192A1, “VASCULAR ADHESION PROTEIN-1 (VAP-1) MODULATORS AND THERAPEUTIC USES THEREOF” (Blade Therapeutics, Inc., priority 2018, published 2021).
Structures can show the parent of a compound that is named as a salt.

Key:
Assay type in all cases: biochemical
Human VAP-1 = target: T1, Human VAP-1 (Homo sapiens, UniProt Q16853); assay: VAP-1 inhibition assay (Amplex Red continuous fluorescence assay); conditions: 30 min pre-incubation at 37° C.; substrate benzylamine; read-out: Human VAP-1 IC50
T1 sequence (Q16853 1-763): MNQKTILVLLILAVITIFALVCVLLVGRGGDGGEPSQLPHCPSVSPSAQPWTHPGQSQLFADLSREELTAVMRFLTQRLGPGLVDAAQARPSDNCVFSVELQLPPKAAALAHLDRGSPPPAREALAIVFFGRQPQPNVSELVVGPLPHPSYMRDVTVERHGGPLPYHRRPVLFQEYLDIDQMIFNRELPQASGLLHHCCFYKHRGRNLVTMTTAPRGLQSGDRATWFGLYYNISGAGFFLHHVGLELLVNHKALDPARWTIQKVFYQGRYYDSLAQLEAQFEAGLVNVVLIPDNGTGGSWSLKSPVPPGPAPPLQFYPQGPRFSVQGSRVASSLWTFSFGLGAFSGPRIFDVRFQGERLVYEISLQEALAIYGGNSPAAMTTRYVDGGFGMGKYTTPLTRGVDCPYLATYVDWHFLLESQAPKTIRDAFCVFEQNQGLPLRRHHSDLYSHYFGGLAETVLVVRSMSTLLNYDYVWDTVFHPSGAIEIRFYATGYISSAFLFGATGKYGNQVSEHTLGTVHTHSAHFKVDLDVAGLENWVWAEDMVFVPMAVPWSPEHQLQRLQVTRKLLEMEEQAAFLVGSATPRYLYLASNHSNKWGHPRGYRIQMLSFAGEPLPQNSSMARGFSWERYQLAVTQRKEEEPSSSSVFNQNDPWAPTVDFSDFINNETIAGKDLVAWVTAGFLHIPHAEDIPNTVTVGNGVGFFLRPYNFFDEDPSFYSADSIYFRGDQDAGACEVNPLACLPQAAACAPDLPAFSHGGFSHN
Experimental: (§1) VAP-1, DAO, MAO-A, MAO-B, and HRP activity and inhibition thereof was assessed by means of a continuous fluorescence assay. The Amplex Red Hydrogen Peroxide/Peroxidase Assay (ThermoFisher) was optimized for detecting amine oxidase (AO) activity. In an enzyme-coupled reaction, the H2O2 generated by AO reacts 1:1 with Amplex Red reagent to produce fluorescent product resorufin.
(§2) Assays were typically setup in black 384-well plates using automated liquid handling as follows. VAP-1/MAO assay buffer contains […] sodium phosphate, pH 7.4; DAO assay buffer contains 50 mM HEPES, pH 7.5; HRP assay buffer contains 100 mM CHES, 1 mM MgCl2, 50 mM NaCl, 0.05% BSA, pH 9.0. Inhibitors were serially diluted in DMSO and used to setup 2× mixtures with AO in the aforementioned buffer. After 30 min pre-incubation at 37° C. (VAP-1, HRP) or room temp (DAO, MAO), the reaction was initiated by adding a 2× mix of Amplex Red, HRP (coupling enzyme), and substrate (benzylamine, histamine, tyramine, benzylamine, H2O2, for VAP-1, DAO, MAO-A, MAO-B, and HR, respectively) in the same buffer. Reaction progress curve data were typically collected for 5 min using excitation/emission wavelengths of 510 nm/565 nm on FLIPR-Tetra plate readers (Molecular Devices Inc). Reaction rates were calculated from progress curve slopes typically over 60-150 sec. Dose response curves (rate vs. log inhibitor concentration) were typically fit to a 4-parameter logistic function to extract IC50 values.

Human MAO-A = target: T2, Human MAO-A (Homo sapiens, UniProt P21397); assay: MAO-A inhibition (Amplex Red continuous fluorescence assay); conditions: 30 min pre-incubation at room temp; substrate tyramine; read-out: Human MAO-A IC50
T2 sequence (P21397 1-527): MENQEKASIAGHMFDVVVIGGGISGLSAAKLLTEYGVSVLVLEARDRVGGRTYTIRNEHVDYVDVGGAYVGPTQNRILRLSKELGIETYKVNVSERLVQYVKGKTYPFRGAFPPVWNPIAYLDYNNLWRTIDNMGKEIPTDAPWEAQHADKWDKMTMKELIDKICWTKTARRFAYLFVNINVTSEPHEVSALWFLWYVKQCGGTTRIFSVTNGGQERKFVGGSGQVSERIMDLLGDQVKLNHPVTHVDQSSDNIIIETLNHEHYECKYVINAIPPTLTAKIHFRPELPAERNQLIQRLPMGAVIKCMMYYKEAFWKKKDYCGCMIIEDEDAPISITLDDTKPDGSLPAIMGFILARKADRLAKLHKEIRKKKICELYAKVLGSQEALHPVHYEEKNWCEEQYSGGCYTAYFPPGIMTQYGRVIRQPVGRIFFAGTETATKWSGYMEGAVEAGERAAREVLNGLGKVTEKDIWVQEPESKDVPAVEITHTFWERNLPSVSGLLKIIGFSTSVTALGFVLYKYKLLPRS
Experimental: as §1, §2

Human MAO-B = target: T3, Human MAO-B (Homo sapiens, UniProt P27338); assay: MAO-B inhibition (Amplex Red continuous fluorescence assay); conditions: 30 min pre-incubation at room temp; substrate benzylamine; read-out: Human MAO-B IC50
T3 sequence (P27338 1-520): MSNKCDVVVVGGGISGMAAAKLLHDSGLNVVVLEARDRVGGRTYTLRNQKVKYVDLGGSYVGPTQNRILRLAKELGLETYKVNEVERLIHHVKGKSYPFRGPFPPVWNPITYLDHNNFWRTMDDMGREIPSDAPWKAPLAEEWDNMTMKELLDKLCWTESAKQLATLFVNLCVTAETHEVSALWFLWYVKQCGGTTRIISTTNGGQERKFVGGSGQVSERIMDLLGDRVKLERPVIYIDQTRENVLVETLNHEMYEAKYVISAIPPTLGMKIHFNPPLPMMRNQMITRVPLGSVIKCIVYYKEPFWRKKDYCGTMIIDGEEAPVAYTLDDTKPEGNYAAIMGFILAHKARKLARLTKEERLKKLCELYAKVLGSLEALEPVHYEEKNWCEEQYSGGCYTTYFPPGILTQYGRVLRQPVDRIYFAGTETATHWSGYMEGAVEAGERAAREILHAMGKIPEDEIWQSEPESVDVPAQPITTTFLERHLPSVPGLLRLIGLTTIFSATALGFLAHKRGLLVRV
Experimental: as §1, §2

Human DAO = target: T4, Human DAO (Homo sapiens, UniProt P19801); assay: DAO inhibition (Amplex Red continuous fluorescence assay); conditions: 30 min pre-incubation at room temp; substrate histamine; read-out: Human DAO IC50
T4 sequence (P19801 20-751): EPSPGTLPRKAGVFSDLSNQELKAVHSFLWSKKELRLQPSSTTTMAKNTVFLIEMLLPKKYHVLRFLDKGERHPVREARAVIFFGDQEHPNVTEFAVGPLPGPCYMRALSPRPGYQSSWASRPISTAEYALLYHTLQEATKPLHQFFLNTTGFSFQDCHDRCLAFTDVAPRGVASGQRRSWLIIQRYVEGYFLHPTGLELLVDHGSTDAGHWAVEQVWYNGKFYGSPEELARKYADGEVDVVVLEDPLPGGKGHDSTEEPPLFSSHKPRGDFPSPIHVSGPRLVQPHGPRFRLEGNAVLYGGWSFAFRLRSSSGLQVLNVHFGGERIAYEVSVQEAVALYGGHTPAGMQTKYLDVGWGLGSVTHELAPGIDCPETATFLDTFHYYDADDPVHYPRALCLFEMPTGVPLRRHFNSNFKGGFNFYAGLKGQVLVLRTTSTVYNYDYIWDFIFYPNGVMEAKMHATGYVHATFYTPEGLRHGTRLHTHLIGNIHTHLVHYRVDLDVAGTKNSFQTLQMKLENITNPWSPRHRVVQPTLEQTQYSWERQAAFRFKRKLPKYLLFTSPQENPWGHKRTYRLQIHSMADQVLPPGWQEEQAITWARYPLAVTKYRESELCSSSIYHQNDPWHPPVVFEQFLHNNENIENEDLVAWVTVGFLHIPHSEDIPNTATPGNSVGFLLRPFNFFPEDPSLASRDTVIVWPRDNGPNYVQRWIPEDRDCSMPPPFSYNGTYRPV
Experimental: as §1, §2

Structure (SMILES) | IC50 (Human VAP-1) [µM] | IC50 (Human MAO-A) [µM] | IC50 (Human MAO-B) [µM] | IC50 (Human DAO) [µM]
NCC(=CF)CN1CCCCC1 (mixture of isomers) [Compound 12, 3-fluoro-2-(piperidin-1-ylmethyl)prop-2-en-1-amine] | > 10 | > 10 | > 10 | 
CC(=O)N(CC(=CF)CN)C1CCCCC1 (mixture of isomers) [Compound 31, hydrochloride] | > 10 | > 10 | > 10 | 
CC(=O)N(C/C(=C/F)CN)c1ccccc1 [Compound 1, (E)-N-(2-(aminomethyl)-3-fluoroalkyl)-N-phenylacetamide hydrochloride] | > 10 | > 10 | > 10 | 
NC/C(=C\F)COc1cccc2[nH]cnc12 [Compound 2, hydrochloride] | 3 to 10 | > 10 | > 10 | 
NC/C(=C\F)CNc1ccccc1 [Compound 3, (E)-2-(fluoromethylene)-N^1-phenylpropane-1,3-diamine hydrochloride] | < 3 | > 10 | < 3 | > 10
NC/C(=C\F)COc1ccc(-c2ncc[nH]2)cc1 [Compound 4, (E)-2-((4-(1H-imidazol-2-yl)phenoxy)methyl)-3-fluoroprop-2-en-1-amine] | < 3 | > 10 | > 10 | < 3
NC/C(=C\F)COCc1ccccc1 [Compound 5, (E)-2-((benzyloxy)methyl)-3-fluoroprop-2-en-1-amine hydrochloride] | < 3 | < 3 | < 3 | > 10
NC/C(=C/F)COCc1ccccc1 [Compound 6, (Z)-2-((benzyloxy)methyl)-3-fluoroprop-2-en-1-amine hydrochloride] | < 3 | < 3 | < 3 | 3 to 10
CCNC(=O)Nc1ccc(OC/C(=C/F)CN)cc1 [Compound 7, (E)-1-(4-((2-(aminomethyl)-3-fluoroalkyl)oxy)phenyl)-3-ethylurea hydrochloride] | < 3 | 3 to 10 | < 3 | 3 to 10
NC/C(=C\F)COc1cccc2scnc12 [Compound 8, (E)-2-((benzo[d]thiazol-4-yloxy)methyl)-3-fluoroprop-2-en-1-amine hydrochloride] | < 3 | < 3 | < 3 | < 3
NC/C(=C/F)COc1cccc2scnc12 [Compound 9, (Z)-2-((benzo[d]thiazol-4-yloxy)methyl)-3-fluoroprop-2-en-1-amine hydrochloride] | < 3 | 3 to 10 | < 3 | > 10
NC/C(=C\F)COc1ccc(-c2nc3ccccc3[nH]2)cc1 [Compound 10, (E)-2-((4-(1H-benzo[d]imidazol-2-yl)phenoxy)methyl)-3-fluoroprop-2-en-1-amine hydrochloride] | < 3 | > 10 | < 3 | < 3
NC/C(=C\F)CNS(=O)(=O)c1ccccc1 [Compound 17, (E)-N-(2-(aminomethyl)-3-fluoroalkyl)benzenesulfonamide hydrochloride] | 3 to 10 | > 10 | > 10 | 
NC/C(=C\F)CNC1CCCCC1 [Compound 22, (E)-N1-cyclohexyl-2-(fluoromethylene)propane-1,3-diamine] | > 10 | > 10 | 3 to 10 | 
Cn1ccnc1-c1ccc(OC/C(=C/F)CN)cc1 [Compound 27, (E)-3-fluoro-2-((4-(1-methyl-1H-imidazol-2-yl)phenoxy)methyl)prop-2-en-1-aminedihydrochloride] | < 3 | > 10 | < 3 | 
CC(=O)N(CC(=CF)CN)Cc1ccccc1 [Compound 32] | > 10 | > 10 | > 10 | 
NC/C(=C\F)COc1ccc(C(=O)NCCCCCNC(=O)CCCCC2SCC3NC(=O)NC32)cc1 (centres unmarked) [Compound 76, (E)-4-((2-(aminomethyl)-3-fluoroalkyl)oxy)-N-(5-(5-(2-oxohexahydro-1H-thieno[3,4-d]imidazol-4-yl)pentanamido)pentyl)benzamide] |  | > 10 | < 3 | < 3
NC/C(=C\F)COc1ccc(C(=O)NCCOCCOCCOCCNC(=O)CCCCC2SCC3NC(=O)NC32)cc1 (centres unmarked) [Compound 77, (E)-4-((2-(aminomethyl)-3-fluoroalkyl)oxy)-N-(13-oxo-17-(2-oxohexahydro-1H-thieno[3,4-d]imidazol-4-yl)-3,6,9-trioxa-12-azaheptadecyl)benzamide] |  | > 10 | 3 to 10 | < 3
